Test results published in US20200131142A1, “FARNESOID X RECEPTOR AGONISTS AND USES THEREOF” (Metacrine, Inc., priority 2017, published 2020).

The molecules below were run against T1, hFXR (Homo sapiens, UniProt Q96RI1) (assay: In Vitro FXR Assay (TK): hFXR/hRXR TK-ECRE-luc reporter in transfected CV-1 cells). Details: 18 hrs incubation, luminescence, compounds with maximum efficacy <25% of the Fexarmine control classified as '+'.
T1 construct: expressed in transfected cells; host or cells: CV-1 cells
T1 sequence (Q96RI1 1-486): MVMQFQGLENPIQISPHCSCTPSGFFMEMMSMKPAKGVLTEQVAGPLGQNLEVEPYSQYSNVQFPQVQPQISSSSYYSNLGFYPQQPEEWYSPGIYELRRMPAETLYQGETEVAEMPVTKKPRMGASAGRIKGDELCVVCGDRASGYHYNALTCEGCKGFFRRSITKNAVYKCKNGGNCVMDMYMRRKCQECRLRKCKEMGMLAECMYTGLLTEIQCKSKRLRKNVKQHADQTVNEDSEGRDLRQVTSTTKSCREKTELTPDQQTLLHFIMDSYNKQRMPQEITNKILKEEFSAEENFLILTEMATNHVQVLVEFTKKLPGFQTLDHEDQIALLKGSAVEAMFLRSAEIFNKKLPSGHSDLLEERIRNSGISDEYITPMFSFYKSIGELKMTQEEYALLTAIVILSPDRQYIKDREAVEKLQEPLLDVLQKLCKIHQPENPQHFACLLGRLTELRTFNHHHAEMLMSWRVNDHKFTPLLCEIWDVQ
T1 sequence (P19793 1-462 partner): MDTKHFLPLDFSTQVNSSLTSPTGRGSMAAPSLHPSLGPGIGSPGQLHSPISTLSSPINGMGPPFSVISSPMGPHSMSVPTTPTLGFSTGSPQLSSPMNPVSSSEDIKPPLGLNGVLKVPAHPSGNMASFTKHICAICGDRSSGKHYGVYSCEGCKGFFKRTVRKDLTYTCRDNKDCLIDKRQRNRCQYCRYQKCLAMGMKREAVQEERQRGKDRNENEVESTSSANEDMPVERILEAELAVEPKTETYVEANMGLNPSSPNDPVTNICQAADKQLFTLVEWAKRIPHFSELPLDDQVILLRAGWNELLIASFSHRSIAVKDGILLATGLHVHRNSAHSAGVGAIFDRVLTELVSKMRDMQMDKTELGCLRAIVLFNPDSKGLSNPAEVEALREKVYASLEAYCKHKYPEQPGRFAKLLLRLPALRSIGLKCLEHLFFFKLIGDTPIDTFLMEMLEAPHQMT
Type: cell-based
Description: Example B-1: In Vitro FXR Assay (TK)
CV-1 cells were seeded at a density of 2,000,000 cells in a T175 flask with DMEM+10% charcoal double-stripped FBS and incubated at 37° C. in 5% CO2 for 18 h (O/N).
After 18 h of incubation, the medium in the T175 flask was changed with fresh DMEM+10% charcoal super-stripped serum. In a polypropylene tube, 2500 μL OptiMEM (Life Technologies, Cat #31985-062) was combined with expression plasmids for hFXR, hRXR, TK-ECRE-luc and pCMX-YFP. The tube was then briefly vortexed and incubated at room temperature for 5 minutes. Transfection reagent (X-tremeGENE HP from Roche, Cat #06 366 236 001) was added to the OptiMEM/plasmid mixture vortexed and incubated at room temperature for 20 minutes. Following incubation, the transfection reagent/DNA mixture complex was added to cells in the T175 flask and the cells were incubated at 37° C. in 5% CO2 for 18 h (O/N).
Compounds were serially diluted in DMSO and added to transfected CV-1 cells. The cells were then incubated for 18 hrs. The next day cells were lysed and examined for luminescence.
`COc1ncc(-c2cccc(N(C[C@H]3CC[C@H](c4ccc(N(C)C)nc4)CC3)C(=O)[C@H]3CC[C@H](O)CC3)c2)s1` [Compound 9.08, trans-N-((trans-4-(6-(Dimethylamino)pyridin-3-yl)cyclohexyl)mtehyl)-4-hydroxy-N-(3-(2-methoxythiazol-5-yl)phenyl)cyclohexanecarboxamide] was tested, and the EC50 was ≤ 0.25 µM. In the case of `COc1ccc(C23CCC(CN(c4cc(-c5cnc(C6CC6)s5)ccn4)C(=O)[C@H]4CC[C@H](O)CC4)(CC2)CC3)cc1C` [Compound 6.05, trans-N-(4-(2-Cyclopropylthiazol-5-yl)pyridin-2-yl)-4-hydroxy-N-((4-(4-methoxy-3-methylphenyl)bicyclo[2.2.2]octan-1-yl)methyl)cyclohexanecarboxamide], the EC50 is reported as ≤ 0.25 µM. Work on `COc1cnc([C@H]2CC[C@H](CN(c3cccc(-c4cnc(C5CC5)s4)c3)C(=O)[C@H]3CC[C@H](O)CC3)CC2)cc1C` [Compound 9.24, trans-N-(3-(2-Cyclopropylthiazol-5-yl)phenyl)-4-hydroxy-N-((trans-4-(5-methoxy-4-methylpyridin-2-yl)cyclohexyl)methyl)cyclohexanecarboxamide] yielded an EC50 of 0.25 to 1 µM. With `COc1ccc([C@H]2CC[C@H](CN(c3cccc(OCc4nccs4)c3)C(=O)[C@H]3CC[C@H](O)CC3)CC2)cc1C` [Compound 16, trans-4-Hydroxy-N-((trans-4-(4-methoxy-3-methylphenyl)cyclohexyl)methyl)-N-(3-(thiazol-2-ylmethoxy)phenyl)cyclohexanecarboxamide] the EC50 was ≤ 0.25 µM. With `COc1ccc([C@H]2CC[C@H](CN(c3cccc(-c4cnc(N5CCCCC5)s4)c3)C(=O)[C@H]3CC[C@H](O)CC3)CC2)cc1C` [Compound 7.14, trans-4-Hydroxy-N-((trans-4-(4-methoxy-3-methylphenyl)cyclohexyl)methyl)-N-(3-(2-(piperidin-1-yl)thiazol-5-yl)phenyl)cyclohexanecarboxamide] the EC50 was ≤ 0.25 µM. For `COc1ccc([C@H]2CC[C@H](CN(c3cc(-c4cnc(C(C)C)s4)ccn3)C(=O)[C@H]3CC[C@H](O)CC3)CC2)nc1C` [Compound 9.29, trans-4-Hydroxy-N-(4-(2-isopropylthiazol-5-yl)pyridin-2-yl)-N-((trans-4-(5-methoxy-6-methylpyridin-2-yl)cyclohexyl)methyl)cyclohexanecarboxamide], the EC50 was ≤ 0.25 µM. For `COc1ccc([C@H]2CC[C@H](CN(c3cccc(-c4cnc(C(N)=O)s4)c3)C(=O)[C@H]3CC[C@H](O)CC3)CC2)cc1C` [Compound 7.25, 5-(3-(trans-4-Hydroxy-N-((trans-4-(4-methoxy-3-methylphenyl)cyclohexyl)methyl)cyclohexanecarboxamido)phenyl)thiazole-2-carboxamide], the EC50 was 0.25 to 1 µM. `COc1ccc([C@H]2CC[C@H](CN(c3cccc(-c4cnc(-c5ccccc5)s4)c3)C(=O)[C@H]3CC[C@H](O)CC3)CC2)cc1C` [Compound 7.10, trans-4-Hydroxy-N-((trans-4-(4-methoxy-3-methylphenyl)cyclohexyl)methyl)-N-(3-(2-phenylthiazol-5-yl)phenyl)cyclohexanecarboxamide] was tested, and the EC50 was ≤ 0.25 µM. For `COc1ccc([C@H]2CC[C@H](CN(c3cccc(-c4cnc(C(C)(C)C)s4)c3)C(=O)[C@H]3CC[C@H](O)CC3)CC2)cc1C` [Compound 7.07, trans-N-(3-(2-(tert-Butyl)thiazol-5-yl)phenyl)-4-hydroxy-N-((trans-4-(4-methoxy-3-methylphenyl)cyclohexyl)methyl) cyclohexanecarboxamide], the EC50 was ≤ 0.25 µM. With `COc1ccc([C@H]2CC[C@H](CN(c3cccc(-c4cnc(C5CCCCC5)s4)c3)C(=O)[C@H]3CC[C@H](O)CC3)CC2)cc1C` [Compound 7.09, trans-N-(3-(2-Cyclohexylthiazol-5-yl)phenyl)-4-hydroxy-N-((trans-4-(4-methoxy-3-methylphenyl)cyclohexyl)methyl) cyclohexanecarboxamide] the EC50 was 0.25 to 1 µM. `COc1ccc([C@H]2CC[C@H](CN(c3cc(-c4cnc(C5CC5)s4)ccn3)C(=O)[C@H]3CC[C@H](O)CC3)CC2)cc1C` [Compound 6.04, trans-N-(4-(2-cyclopropylthiazol-5-yl)pyridin-2-yl)-4-hydroxy-N-((trans-4-(4-methoxy-3-methylphenyl)cyclohexyl)methyl) cyclohexanecarboxamide] was tested, and the EC50 was ≤ 0.25 µM. With `CC#Cc1ncc(-c2cccc(N(C[C@H]3CC[C@H](c4ccc(OC)c(C)c4)CC3)C(=O)[C@H]3CC[C@H](O)CC3)c2)s1` [Compound 7.21, trans-4-Hydroxy-N-((trans-4-(4-methoxy-3-methylphenyl)cyclohexyl)methyl)-N-(3-(2-(prop-1-yn-1-yl)thiazol-5-yl)phenyl)cyclohexanecarboxamide] the EC50 was ≤ 0.25 µM. For `COc1ncc(-c2cccc(N(C[C@H]3CC[C@H](c4ccc5scnc5c4)CC3)C(=O)[C@H]3CC[C@H](O)CC3)c2)s1` [Compound 9.09, trans-N-((trans-4-(Benzo[d]thiazol-5-yl)cyclohexyl)methyl)-4-hydroxy-N-(3-(2-methoxythiazol-5-yl)phenyl)cyclohexanecarboxamide], the EC50 was ≤ 0.25 µM. `COc1ncc(-c2ccnc(N(C[C@H]3CC[C@H](c4ccc(OC)c(C)c4)CC3)C(=O)[C@H]3CC[C@H](O)CC3)c2)s1` [Compound 6.01, trans-4-Hydroxy-N-((trans-4-(4-methoxy-3-methylphenyl)cyclohexyl)methyl)-N-(4-(2-methoxythiazol-5-yl)pyridin-2-yl)cyclohexanecarboxamide] was tested, and the EC50 was ≤ 0.25 µM. `COc1ccc([C@H]2CC[C@H](CN(c3cc(-c4cnc(C5CC5)s4)ccn3)C(=O)[C@H]3CC[C@H](O)CC3)CC2)nc1C#N` [Compound 9.23, trans-N-((trans-4-(6-Cyano-5-methoxypyridin-2-yl)cyclohexyl)methyl)-N-(4-(2-cyclopropylthiazol-5-yl)pyridin-2-yl)-4-hydroxycyclohexanecarboxamide] was tested, and the EC50 was ≤ 0.25 µM. Work on `COC(=O)c1ncc(-c2cccc(N(C[C@H]3CC[C@H](c4ccc(OC)c(C)c4)CC3)C(=O)[C@H]3CC[C@H](O)CC3)c2)s1` [Compound 7.27, Methyl 5-(3-(trans-4-hydroxy-N-((trans-4-(4-methoxy-3-methylphenyl)cyclohexyl)methyl)cyclohexanecarboxamido)phenyl)thiazole-2-carboxylate] yielded an EC50 of 0.25 to 1 µM. `COc1ccc([C@H]2CC[C@H](CN(c3cccc(-c4cnc(C#N)s4)c3)C(=O)[C@H]3CC[C@H](O)CC3)CC2)cc1C` [Compound 7.26, trans-N-(3-(2-Cyanothiazol-5-yl)phenyl)-4-hydroxy-N-((trans-4-(4-methoxy-3-methylphenyl)cyclohexyl)methyl) cyclohexanecarboxamide] showed an EC50 of 0.25 to 1 µM. With `COc1ccc([C@H]2CC[C@H](CN(c3cccc(-c4cnc(OC(C)C)s4)c3)C(=O)[C@H]3CC[C@H](O)CC3)CC2)cc1C` [Compound 7.17, trans-4-Hydroxy-N-(3-(2-isopropoxythiazol-5-yl)phenyl)-N-((trans-4-(4-methoxy-3-methylphenyl)cyclohexyl)methyl) cyclohexanecarboxamide] the EC50 was ≤ 0.25 µM. With `COc1ncc(-c2cccc(N(C[C@H]3CC[C@H](c4ccc(OC)c(C)c4)CC3)C(=O)[C@H]3CC[C@H](O)CC3)c2)s1` [Compound 1, trans-4-Hydroxy-N-((trans-4-(4-methoxy-3-methylphenyl)cyclohexyl)methyl)-N-(3-(2-methoxythiazol-5-yl)phenyl)cyclohexanecarboxamide] the EC50 was ≤ 0.25 µM. For `COc1ccc([C@H]2CC[C@H](CN(c3cccc(-c4cnc(N5CCCC5)s4)c3)C(=O)[C@H]3CC[C@H](O)CC3)CC2)cc1C` [Compound 6, trans-4-Hydroxy-N-((trans-4-(4-methoxy-3-methylphenyl)cyclohexyl)methyl)-N-(3-(2-(pyrrolidin-1-yl)thiazol-5-yl)phenyl)cyclohexanecarboxamide], the EC50 was ≤ 0.25 µM. With `COc1ccc([C@H]2CC[C@H](CN(c3cccc(C#Cc4nccs4)c3)C(=O)[C@H]3CC[C@H](O)CC3)CC2)cc1C` [Compound 18, trans-4-Hydroxy-N-((trans-4-(4-methoxy-3-methylphenyl)cyclohexyl)methyl)-N-(3-(thiazol-2-ylethynyl)phenyl)cyclohexanecarboxamide] the EC50 was ≤ 0.25 µM.
